Source: US5256657A, “Succinamide derivative matrix-metalloprotease inhibitors” (Sterling Winthrop, Inc., priority 1991, dated 1993)

These compounds were tested against T1, human fibroblast collagenase (Homo sapiens, UniProt P03956) (assay: Inhibition of Human Fibroblast Collagenase (in vitro, H-Pro-Met-Ala-Leu-Trp-NHCH3 substrate, fluorescamine detection)). Conditions: trypsin-activated enzyme 25 nM; substrate 375 μM; pH 7.5; DMSO not exceeding 5%; 90 minutes; calculated from competitive inhibitor equation; read-out: IC50 (half-maximal inhibitory concentration), Inhibition of Human Fibroblast Collagenase.
T1 construct: made in house; host or cells: human fibroblast (native enzyme by its name)
T1 sequence (P03956 100-469): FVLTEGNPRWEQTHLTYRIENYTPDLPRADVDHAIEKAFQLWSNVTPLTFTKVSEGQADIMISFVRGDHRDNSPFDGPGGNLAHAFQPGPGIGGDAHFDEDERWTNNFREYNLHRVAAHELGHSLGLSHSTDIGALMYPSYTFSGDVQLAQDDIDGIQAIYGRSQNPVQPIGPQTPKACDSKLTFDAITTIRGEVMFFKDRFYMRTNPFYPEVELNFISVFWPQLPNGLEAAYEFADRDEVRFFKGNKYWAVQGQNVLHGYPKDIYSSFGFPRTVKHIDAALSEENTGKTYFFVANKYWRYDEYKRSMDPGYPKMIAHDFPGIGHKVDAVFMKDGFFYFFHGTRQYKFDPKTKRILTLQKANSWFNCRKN
Format: biochemical
Experimental: As stated above the compounds of Formula I are matrix-metalloprotease inhibitors useful in treatment of disease in which matrix-metalloprotease promoted connective tissue remodelling is a causative factor, for example, rheumatoid arthritis and cancer.
Human fibroblast collagenase was purified as described by Fields et al. (The Journal of Biological Chemistry, vol. 262, pp. 6221-6226, 1987), activated with trypsin and used at a concentration of 25 nM. H-Pro-Met-Ala-Leu-Trp-NHCH3 (Netzel-Arnett et al., The Journal of Biological Chemistry, vol 266, pp. 6747-6755, 1991) was used as substrate at a concentration of 375 μM. Fluorescamine was used to detect the products of enzymolysis. […] Product concentrations were measured at intervals throughout the test period (90 minutes). The half-maximal inhibitory concentration (IC50) of the test compound was calculated from the equation for a competitive inhibitor using percent inhibition values between 20% and 80%. The products of parts B and C of example 2 and parts B and C. of example 3 were tested and the following results were obtained.

Row | Structure (SMILES) | IC50 [nM]
1 | CC(C)C[C@H](CC(=O)O)C(=O)N[C@@H](Cc1c[nH]c2ccccc12)C(=O)NCCSCCN(C)C [Example 2B] | 8800
2 | CC(C)C[C@H](CC(=O)O)C(=O)N[C@@H](Cc1c[nH]c2ccccc12)C(=O)NCCSCCN1CCOCC1 [Example 3B] | 4500
3 | CC(C)C[C@H](CC(=O)NO)C(=O)N[C@@H](Cc1c[nH]c2ccccc12)C(=O)NCCSCCN1CCOCC1 [Example 3C] | 15
4 | CC(C)C[C@H](CC(=O)NO)C(=O)N[C@@H](Cc1c[nH]c2ccccc12)C(=O)NCCSCCN(C)C [Example 2C] | 20
